Experimental data reported in the C3SDB collision cross section collection.

How the values were obtained:
[1] = instrument: TW, calibrated with polyalanine
[2] = instrument: TW, calibrated with phosphatidylcholines (ESI+) and phosphatidylethanolamines (ESI-), doubly charged cardiolipins calibrated with poly-DL-…

SMILES | collision cross section (N2) ([1]; [M+H]+) [Å²] | collision cross section (N2) ([2]; [M+Na]+) [Å²] | collision cross section (N2) ([2]; [M-H]-) [Å²] | other results
O=C(O)[C@H](O)COP(=O)(O)O [3-Phosphoglyceric acid] |  |  |  | collision cross section (N2) ([1]; [M+Na]+): 134 Å²
O=C(O)[C@H](O)[C@@H](O)[C@H](O)[C@H](O)COP(=O)(O)O [6-Phosphogluconate] |  |  |  | collision cross section (N2) ([1]; [M+Na]+): 159 Å²
Nc1ncnc2c1ncn2[C@@H]1O[C@H](COP(=O)(O)OP(=O)(O)O)[C@@H](O)[C@H]1O [ADP] | 181 |  |  | 
NC(=O)c1ncn([C@@H]2O[C@H](CO)[C@@H](O)[C@H]2O)c1N [Acadesine] | 152 |  |  | 
CCCCCC/C=C\CCCCCCCC(=O)OC[C@H](COP(=O)(O)OCCNC(=O)CCCCCCCCCCCCCCC)OC(=O)CCCCCCCCCCCCCCC [AcylPE(48:1)] |  | 325 | 316.85 | 
CCCCCC/C=C\CCCCCCCC(=O)OC[C@H](COP(=O)(O)OC[C@@H](O)COC(=O)CCCCCCCCCCCCCCC)OC(=O)CCCCCCCCCCCCCCC [AcylPG(48:1)] |  | 327.7 | 316.96 | 
CCCCCCCCCCCCCCCC(=O)OC[C@H](O)COP(=O)(O)OC[C@@H](COC(=O)CCCCCCCCCCCCCCC)OC(=O)CCCCCCCC1CC1CCCCCC (stereo partly specified) [AcylPG(49:1)] |  | 332.3 | 320.54 | 
NC(=O)C[C@H](N)C(=O)O [Asparagine] | 118 |  |  | 
CCCCCC/C=C\CCCCCCCC(=O)OCC(COP(=O)(O)OCC(O)COP(=O)(O)OCC(COC(=O)CCCCCCCCCCCCCC)OC(=O)CCCCCCC/C=C\CCCCCC)OC(=O)CCCCCCC/C=C\CCCCCC (stereo unspecified) [CL(63:3)] |  |  |  | collision cross section (N2) ([2]; [M-2H]2-): 394.68 Å²
CCCCCC/C=C\CCCCCCCC(=O)OC(COC(=O)CCCCCCCC1CC1CCCCCC)COP(=O)(O)OCC(O)COP(=O)(O)OCC(COC(=O)CCCCCCCCCCCCCCC)OC(=O)CCCCCCC/C=C\CCCCCCCC (stereo unspecified) [CL(67:3)] |  |  |  | collision cross section (N2) ([2]; [M+2K]2+): 428.6 Å²; collision cross section (N2) ([2]; [M-2H]2-): 404.47 Å²
CCCCCC/C=C\CCCCCCCC(=O)OCC(COP(=O)(O)OCC(O)COP(=O)(O)OCC(COC(=O)CCCCCCCC1CC1CCCCCC)OC(=O)CCCCCCC/C=C\CCCCCC)OC(=O)CCCCCCC/C=C\CCCCCCCC (stereo unspecified) [CL(67:4)] |  |  |  | collision cross section (N2) ([2]; [M-2H]2-): 404.19 Å²
CCCCCC/C=C\CCCCCCCC(=O)OC(COC(=O)CCCCCCCC1CC1CCCCCCCC)COP(=O)(O)OCC(O)COP(=O)(O)OCC(COC(=O)CCCCCCCCCCCCCCC)OC(=O)CCCCCCC/C=C\CCCCCCCC (stereo unspecified) [CL(69:3)] |  |  |  | collision cross section (N2) ([2]; [M-2H]2-): 408.91 Å²
Nc1nc(=O)c2nc(CNc3ccc(C(=O)N[C@@H](CCC(=O)O)C(=O)O)cc3)cnc2[nH]1 [Folic acid] |  |  |  | collision cross section (N2) ([1]; [M+Na]+): 202 Å²
CCCCCCCC/C=C/CCCCCCCC(=O)O[C@H](CO)COP(=O)([O-])OCC[NH3+] [LPE(0:0/18:1)] |  | 220.12 | 210.71 | collision cross section (N2) ([2]; [M+H]+): 215.99 Å²
CCCCC1CC1CCCCCCCC(=O)OC[C@@H](O)COP(=O)([O-])OCC[NH3+] (stereo partly specified) [LPE(15:1/0:0)] |  |  | 200.28 | 
CCCCCCCC/C=C/CCCCCCCC(=O)OC[C@@H](O)COP(=O)([O-])OCC[NH3+] [LPE(18:1/0:0)] |  | 219.17 | 211.1 | collision cross section (N2) ([2]; [M+H]+): 214.35 Å²

More lines, main results first:

collision cross section (N2) ([1]; [M+H]+) [Å²] | collision cross section (N2) ([2]; [M+Na]+) [Å²] | collision cross section (N2) ([2]; [M-H]-) [Å²] | SMILES | other results
 | 328.3 | 320.39 | CCCCCCCCCCCCCCCC(=O)NCCOP(=O)(O)OC[C@@H](COC(=O)CCCCCCCCCCCCCCC)OC(=O)CCCCCCCC1CC1CCCCCC (stereo partly specified) [AcylPE(49:1)] | 
163 |  |  | Nc1ccn([C@@H]2O[C@H](COP(=O)(O)O)[C@@H](O)[C@H]2O)c(=O)n1 [CMP] | 
113 |  |  | N[C@@H](CS)C(=O)O [Cysteine] | 
145 |  |  | N[C@@H](CSSC[C@H](N)C(=O)O)C(=O)O [Cystine] | 
196 |  |  | Nc1nc(=O)c2ncn([C@@H]3O[C@H](COP(=O)(O)OP(=O)(O)OP(=O)(O)O)[C@@H](O)[C@H]3O)c2[nH]1 [GTP] | 
123 |  |  | N[C@@H](CCC(=O)O)C(=O)O [Glutamic acid] | 
127 |  |  | N[C@@H](Cc1cnc[nH]1)C(=O)O [Histidine] | 
 | 216.84 | 202.25 | CCCCCCCCCCCCCCC(=O)O[C@H](CO)COP(=O)([O-])OCC[NH3+] [LPE(0:0/15:0)] | collision cross section (N2) ([2]; [M+H]+): 212.69 Å²
 | 212.49 | 199.2 | CCCCCCCCCCCCCC(=O)OC[C@@H](O)COP(=O)([O-])OCC[NH3+] [LPE(14:0/0:0)] | collision cross section (N2) ([2]; [M+H]+): 206.14 Å²
 | 225.77 | 214.97 | CCCCCCCCC1CC1CCCCCCCC(=O)OC[C@@H](O)COP(=O)([O-])OCC[NH3+] (stereo partly specified) [LPE(19:1/0:0)] | collision cross section (N2) ([2]; [M+H]+): 219.65 Å²
